{"source": "patent US11612560B2", "about": "“Treatment of Raynaud's phenomenon by inhibition of transient receptor potential melastatin-8 (TRPM-8)” (The University of Toledo, priority 2015, dated 2023)", "key": {"TRPM8 [1]": {"target": "T1, TRPM8 (Homo sapiens, UniProt Q7Z2W7)", "T1 construct": "Human MVEC express functional TRPM8; endogenous in cells; host or cells: human microvascular endothelial cells (normal MVEC and SSc-MVEC)", "T1 sequence (Q7Z2W7 whole entry)": "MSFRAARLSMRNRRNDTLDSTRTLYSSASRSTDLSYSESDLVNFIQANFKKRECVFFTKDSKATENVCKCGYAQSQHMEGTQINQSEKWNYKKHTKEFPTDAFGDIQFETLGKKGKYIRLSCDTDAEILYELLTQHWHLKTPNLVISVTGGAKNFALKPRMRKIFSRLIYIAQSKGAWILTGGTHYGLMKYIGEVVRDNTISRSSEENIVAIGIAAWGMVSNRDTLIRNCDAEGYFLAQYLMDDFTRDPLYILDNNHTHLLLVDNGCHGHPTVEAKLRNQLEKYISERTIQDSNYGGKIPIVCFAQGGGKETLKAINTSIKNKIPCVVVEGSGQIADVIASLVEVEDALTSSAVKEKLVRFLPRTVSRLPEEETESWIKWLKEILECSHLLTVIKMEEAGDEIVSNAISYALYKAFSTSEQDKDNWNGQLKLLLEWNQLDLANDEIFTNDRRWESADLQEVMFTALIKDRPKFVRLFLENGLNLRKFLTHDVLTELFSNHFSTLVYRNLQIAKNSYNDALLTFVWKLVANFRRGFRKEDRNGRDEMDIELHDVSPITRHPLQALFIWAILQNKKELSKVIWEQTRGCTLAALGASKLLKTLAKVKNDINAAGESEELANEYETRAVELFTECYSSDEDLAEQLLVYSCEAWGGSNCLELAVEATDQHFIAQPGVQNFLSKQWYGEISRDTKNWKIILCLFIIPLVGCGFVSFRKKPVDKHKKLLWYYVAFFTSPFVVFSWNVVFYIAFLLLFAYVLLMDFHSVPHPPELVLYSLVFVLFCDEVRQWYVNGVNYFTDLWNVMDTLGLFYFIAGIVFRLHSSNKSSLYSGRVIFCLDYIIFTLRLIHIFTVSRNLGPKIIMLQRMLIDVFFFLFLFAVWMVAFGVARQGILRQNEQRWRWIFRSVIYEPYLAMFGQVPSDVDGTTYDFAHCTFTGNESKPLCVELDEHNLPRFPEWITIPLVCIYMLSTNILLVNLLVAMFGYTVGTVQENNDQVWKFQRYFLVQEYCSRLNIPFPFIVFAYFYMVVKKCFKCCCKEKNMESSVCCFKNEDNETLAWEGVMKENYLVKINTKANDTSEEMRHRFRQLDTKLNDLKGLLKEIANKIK", "assay": "MVEC gene expression (ET1, NOS3, PTGIS mRNA) by qPCR after TRPM8 activation", "assay_type": "cell-based", "protocol": "FIGS. 4A-4C: Effects of cold exposure on ET1 (FIG. 4A), NOS3 (FIG. 4B), and PTGIS (FIG. 4C) mRNA expression. Normal MVECs were exposed to 18° C. temperature for 1 hr. The mRNA expression levels were measured by qPCR.\nFIGS. 5A-5C: Effects of Menthol on ET1 (FIG. 5A), NOS3 (FIG. 5B), and PTGIS (FIG. 5C) mRNA expression. Normal endothelial cells were treated with menthol (MT) at 20 μM, 100 μM, and 500 μM with and without capsazepine (CapZ) for 24 hours. The mRNA expression levels were measured by qPCR.\nThe effect of exposure of normal MVEC to […] on MVEC gene expression was evaluated. Specifically, gene expression levels of NOS3, PTGIS, and ET1 in MVEC were evaluated in response to TRPM8 activation by cold exposure (FIGS. 4A-4C) and menthol (FIGS. 5A-5C) with and without Capsazepine, which is one of the TRPM8 receptor inhibitors.\nThus, the use of TRPM8 antagonists can be an effective strategy for treatment Raynaud's phenomenon in SSc patients."}, "TRPM8 [2]": {"target": "T1, TRPM8", "assay": "Intracellular calcium (Ca2+ influx) in MVEC, Fluo-4AM microfluorometry", "assay_type": "cell-based", "protocol": "FIG. 2: Pharmacological activation of TRPM8 in human microvascular endothelial cells. […] ATP was used as the positive control.\nFIG. 3: Effects of menthol on intracellular calcium level in NL-MVECs and SSc-MVECs. Cells were loaded with 2 μM calcium indicator dye Fluo-4AM for 1 hour and treated with menthol with and without capsazepine for 10 minutes and then observed under microscope.\nTo evaluate the functional role of TRPM8 in MVECs, the intracellular calcium ([Ca^2+]) influx into MVEC by Ca^2+ was evaluated by microfluorometry studies in response to the addition of menthol or exposure to cold, which are known to activate TRPM8 (FIG. 2).\nThe effect of menthol is abrogated by the use of Capsazepine, a TRPM8 receptor inhibitor. These findings indicate that TRPM8 mediates functional effects in MVEC that are mediated by calcium influx, which is antagonized by the use of Capsazepine."}, "[3]": {"assay": "Storage stability of capsazepine", "assay_type": "physicochemical", "conditions": "long term storage recommended at −20° C."}, "[4]": {"tested_on": "patients with Raynaud's phenomenon", "assay": "Cold challenge test with infrared thermography of digital blood flow after topical application", "assay_type": "in vivo, human", "source_text": "A FLIR thermography system (Wilsonville, Oreg.) was used to evaluate blood flow in the digits in response to a cold challenge test in addition to PPG. The advantage of combining the two modalities is that both (i) a dynamic assessment of blood flow in the hands as reflected by changes in temperature in response to cold challenge tests, as well as (ii) the ability to obtain single point measurements, can be achieved.\nFIGS. 8A-8B show the local application of econazole to the left index finger, and clotrimazole to the ring finger, for 15 minutes before cold exposure (FIG. 8A). […] Note the red color that depicts higher temperature of skin on the left index finger in the right panel of FIG. 8B.\nGel formulations of 3% econazole and 3% clotrimazole were prepared, then applied to the index and ring fingers (respectively) of the left hand of patients with Raynaud's phenomenon. The topical application was left for 15 minutes on the fingers, before inducing Raynaud's phenomenon by a cold challenge test. The digital blood flow was analyzed by infrared thermography."}, "[5]": {"conditions": "activation of TRPM8 in MVEC by cold temperature or by menthol, qPCR"}}, "note": "Entries after “also recorded” stand apart in the source; their conditions may differ."}
{"compound": "CC1CCC(C(C)C)C(O)C1", "note": "(centres unmarked) [menthol]", "values": [{"measurement": "NOS3 expression reduction", "setting": "TRPM8 [1]; [5]", "result": 62, "unit": "%"}, {"measurement": "PTGIS expression reduction", "setting": "TRPM8 [1]; [5]", "result": 61, "unit": "%"}, {"measurement": "increase in expression of ET1", "setting": "TRPM8 [1]; [5]", "result": 2.4, "unit": "folds"}, {"measurement": "Ca2+ influx in MVEC", "setting": "TRPM8 [2]; 500 μM/L menthol, human microvascular endothelial cells", "result": "increase in Ca^2+ influx"}, {"measurement": "intracellular calcium levels", "setting": "TRPM8 [2]; SSc MVEC and healthy MVEC, Fluo-4AM, 10 minutes", "result": "increases intracellular calcium levels"}]}
{"compound": "Oc1cc2c(cc1O)CN(C(=S)NCCc1ccc(Cl)cc1)CCC2", "note": "[capsazepine]", "values": [{"measurement": "effect on cold/menthol-induced changes of ET1, NOS3 and PTGIS expression", "setting": "TRPM8 [1]; MVEC, addition of TRPM8 antagonist", "result": "normalization of gene expression levels; also recorded: reversed; also recorded: near normalization"}, {"measurement": "effect on menthol-induced intracellular calcium increase", "setting": "TRPM8 [2]; menthol with capsazepine, 10 minutes, NL-MVECs and SSc-MVECs", "result": "abrogated"}, {"measurement": "stability at room temperature", "setting": "[3]", "result": "not stable at room temperature"}]}
{"compound": "Clc1ccc(COC(Cn2ccnc2)c2ccc(Cl)cc2Cl)cc1", "note": "(centres unmarked) [econazole]", "values": [{"measurement": "cold induced decrease in blood flow to the fingers", "setting": "[4]; 3% gel on left index finger, 15 minutes before cold challenge, infrared thermography", "result": "prevented the cold induced decrease in blood flow"}, {"measurement": "subjective feeling of finger coldness by patient report", "setting": "[4]; after topical application and cold challenge", "result": "less finger coldness"}, {"measurement": "finger temperature in thermal image after cold exposure", "setting": "[4]; local application to left index finger for 15 minutes before cold exposure", "result": "warmer than the other fingers"}]}
